Measured values as given in paper PMC7998669, “7-(2-Anilinopyrimidin-4-yl)-1-benzazepin-2-ones Designed by a “Cut and Glue” Strategy Are Dual Aurora A/VEGF-R Kinase Inhibitors” (Molecules, 2021).

Columns and labels:
Test in all cases: NCI cancer cell line screen (sulforhodamin B)
Format in all cases: cell-based
A549/ATCC = conditions: Homo sapiens, NSCL, 48 h, read-out: log10 GI50 (converted)
Procedure: (§1) The new dual Aurora A/VEGF-R inhibitors 2e and 2n were selected by the National Cancer Institute for screening in its broad cancer cell line panel. The NCI in vitro assay is performed by incubation of cells with test compounds for 48 h and subsequent cell fixation with trichloroacetic acid. The pink dye sulforhodamin B is added, which binds to the proteins of the fixed cells. After washing and solubilizing the bound stain, the optical density is measured spectrophotometrically to determine the relative proliferation of treated and untreated cells.
(§2) Simultaneous inhibition of the Aurora A kinase and the VEGF-R2/3 receptor kinases may represent an interesting dual activity for the treatment of cancer. The National Cancer Institute selected the compounds 2e and 2n as representatives with particularly high inhibitory activity on the above kinases for testing in the IVCLS (in vitro cell line screening). In this screening, compounds are tested for antiproliferative activity on about 60 in vitro cultivated tumor cell lines. Based on this very broad screening on cell lines from nine tumor entities the general antiproliferative potency of compounds is determined. In addition, the bioinformatic tool COMPARE allowed one to draw conclusions on the molecular target of the compounds from the activity patterns on the different cell lines. Similar molecular mechanisms of action of two compounds are assumed if a Pearson correlation coefficient (PCC) of > 0.6 is calculated by COMPARE [52, 53]. […] The selectivity profile of the two compounds is not very pronounced given the overall very similar proliferation inhibition values across all cell lines. A COMPARE analysis determined a PCC = 0.61 for the patterns of test compounds 2e and 2n, which is consistent with an analogous mechanism of action. However, whether this mechanism is actually based on the inhibition of the inhibited Aurora kinases and VEGF receptor kinases cannot be deduced from these profiles.

IGROV1 = conditions: Homo sapiens, IGROV-1; IGROV1, Ovarian; 48 h; read-out: log10 GI50 (converted)
Procedure: as §1, §2

U251 = conditions: Homo sapiens, U-251; U251, CNS; 48 h; read-out: log10 GI50 (converted)
Procedure: as §1, §2

BT-549 = conditions: Homo sapiens; BT-549, Breast; 48 h; read-out: log10 GI50 (converted)
Procedure: as §1, §2

NCI-H522 = conditions: Homo sapiens; NCI-H522, NSCL; 48 h; read-out: log10 GI50 (converted)
Procedure: as §1, §2

M14 = conditions: Homo sapiens; M14, Melanoma; 48 h; read-out: log10 GI50 (converted)
Procedure: as §1, §2

OVCAR-5 = conditions: Homo sapiens; OVCAR-5, Ovarian; 48 h; read-out: log10 GI50 (converted)
Procedure: as §1, §2

NCI-H226 = conditions: Homo sapiens; NCI-H226, NSCL; 48 h; read-out: log10 GI50 (converted)
Procedure: as §1, §2

OVCAR-3 = conditions: Homo sapiens; OVCAR-3, Ovarian; 48 h; read-out: log10 GI50 (converted)
Procedure: as §1, §2

NCI-H460 = conditions: Homo sapiens; NCI-H460, NSCL; 48 h; read-out: log10 GI50 (converted)
Procedure: as §1, §2

SF-268 = conditions: Homo sapiens; SF-268, CNS; 48 h; read-out: log10 GI50 (converted)
Procedure: as §1, §2

NCI-H23 = conditions: Homo sapiens; NCI-H23, NSCL; 48 h; read-out: log10 GI50 (converted)
Procedure: as §1, §2

CCRF-CEM = conditions: Homo sapiens, Leukemia, 48 h, read-out: log10 GI50 (converted)
Procedure: as §1, §2

HT29 = conditions: Homo sapiens, HT-29; HT29, Colon; 48 h; read-out: log10 GI50 (converted)
Procedure: as §1, §2

PC-3 = conditions: Homo sapiens; PC-3, Prostate; 48 h; read-out: log10 GI50 (converted)
Procedure: as §1, §2

U0-31 = conditions: Homo sapiens; U0-31, Renal; 48 h; read-out: log10 GI50 (converted)
Procedure: as §1, §2

UACC-62 = conditions: Homo sapiens; UACC-62, Melanoma; 48 h; read-out: log10 GI50 (converted)
Procedure: as §1, §2

HL-60(TB) = conditions: Homo sapiens, Leukemia, 48 h, read-out: log10 GI50 (converted)
Procedure: as §1, §2

OVCAR-4 = conditions: Homo sapiens; OVCAR-4, Ovarian; 48 h; read-out: log10 GI50 (converted)
Procedure: as §1, §2

SF-539 = conditions: Homo sapiens; SF-539, CNS; 48 h; read-out: log10 GI50 (converted)
Procedure: as §1, §2

SK-MEL-2 = conditions: Homo sapiens; SK-MEL-2, Melanoma; 48 h; read-out: log10 GI50 (converted)
Procedure: as §1, §2

SR = conditions: Homo sapiens, Leukemia, 48 h, read-out: log10 GI50 (converted)
Procedure: as §1, §2

NCI/ADR-RES = conditions: Homo sapiens, Ovarian, 48 h, read-out: log10 GI50 (converted)
Procedure: as §1, §2

HCT-15 = conditions: Homo sapiens; HCT-15, Colon; 48 h; read-out: log10 GI50 (converted)
Procedure: as §1, §2

EKVX = conditions: Homo sapiens, NSCL, 48 h, read-out: log10 GI50 (converted)
Procedure: as §1, §2

786-0 = conditions: Homo sapiens; 786-0, Renal; 48 h; read-out: log10 GI50 (converted)
Procedure: as §1, §2

SK-MEL-5 = conditions: Homo sapiens; SK-MEL-5, Melanoma; 48 h; read-out: log10 GI50 (converted)
Procedure: as §1, §2

COc1ccc(Nc2nccc(-c3ccc4c(c3)CCCC(=O)N4)n2)cc1O [Compound 2n, 7-[2-(3-Hydroxy-4-methoxyanilino)pyrimidin-4-yl]-1,3,4,5-tetrahydro-2H-1-benzazepin-2-one]
GI50 (A549/ATCC): 7.94 µM | GI50 (IGROV1): 3.02 µM | GI50 (U251): 10.2 µM | GI50 (BT-549): 5.62 µM | GI50 (NCI-H522): 10 µM | GI50 (M14): 4.37 µM | GI50 (OVCAR-5): 8.71 µM | GI50 (NCI-H226): 9.12 µM | GI50 (OVCAR-3): 10 µM | GI50 (NCI-H460): 4.68 µM | GI50 (SF-268): 7.41 µM | GI50 (NCI-H23): 11.7 µM | GI50 (CCRF-CEM): 3.89 µM | GI50 (HT29): 13.2 µM | GI50 (PC-3): 12.6 µM | GI50 (U0-31): 3.02 µM | GI50 (UACC-62): 9.33 µM | GI50 (HL-60(TB)): 3.16 µM | GI50 (OVCAR-4): 7.59 µM | GI50 (SF-539): 4.47 µM | GI50 (SK-MEL-2): 9.12 µM | GI50 (SR): 3.16 µM | GI50 (NCI/ADR-RES): 14.1 µM | GI50 (HCT-15): 4.57 µM | GI50 (EKVX): 43.7 µM | GI50 (786-0): 4.57 µM | GI50 (SK-MEL-5): 10 µM

O=C1CCCc2cc(-c3ccnc(Nc4ccc(O)cc4)n3)ccc2N1 [Compound 2e, 7-[2-(4-Hydroxyanilino)pyrimidin-4-yl]-1,3,4,5-tetrahydro-2H-1-benzazepin-2-one]
GI50 (A549/ATCC): 4.47 µM | GI50 (IGROV1): 2.51 µM | GI50 (U251): 6.03 µM | GI50 (BT-549): 5.13 µM | GI50 (NCI-H522): 4.47 µM | GI50 (M14): 4.07 µM | GI50 (OVCAR-5): 6.46 µM | GI50 (NCI-H226): 29.5 µM | GI50 (OVCAR-3): 5.89 µM | GI50 (NCI-H460): 3.16 µM | GI50 (SF-268): 4.37 µM | GI50 (NCI-H23): > 100 µM | GI50 (CCRF-CEM): 2.51 µM | GI50 (HT29): 5.13 µM | GI50 (PC-3): 4.9 µM | GI50 (U0-31): 1.74 µM | GI50 (UACC-62): 9.12 µM | GI50 (HL-60(TB)): 1.38 µM | GI50 (OVCAR-4): 5.62 µM | GI50 (SF-539): 4.17 µM | GI50 (SK-MEL-2): 2.09 µM | GI50 (SR): 1.32 µM | GI50 (NCI/ADR-RES): > 100 µM | GI50 (HCT-15): 3.24 µM | GI50 (EKVX): 34.7 µM | GI50 (786-0): 4.37 µM | GI50 (SK-MEL-5): 3.09 µM
